Here are results for four compounds from US7291743B2, “Isoxazole derivatives and methods of treating nitric oxide mediated diseases” (Geneblue Corporation, priority 2005, dated 2007).

Structures are written as SMILES.

Data set [1] deals with RAW264.7 cells (murine macrophage). Kind of data set: Inhibition of nitric oxide production in vitro (nitrite by Griess reagent in LPS-stimulated macrophage cells). Format: cell-based. The following applies: Mus musculus, LPS 1 μg/mL, 24 hours, test solution 25-200 μM, nitrite by Griess reagent at 550 nm, Mean ± S.E. of 4-6 observations, read-out: IC50 (inhibition of LPS-induced NO production). The protocol: • 1. Prepare the cell culture medium DMEM (Dulbecco's modified eagle medium) with 10% fetal calf serum and 10% penicillin-streptomycin. Grow RAW264.7 cells (murine macrophage) in the medium in an incubator at 37° C. under 5% CO2 and saturated water vapor. • 2. Dissolve each test compound in DMSO to make a stock solution. Prepare the test solutions by making suitable dilutions of each stock solution with DMEM. • 3. Add the LPS solution (final concentration=1 μg/mL) and the test solution (final concentration ranging from 25, 50, 100, and up to 200 μM) to individual cell cultures and place in the incubator for 24 hours. • 4. In vitro Nitrite quantification: The production of NO was determined by measuring the accumulated levels of nitrite in culture supernatants with the Griess reagent in LPS-stimulated macrophage cells. • (a) Withdraw 100 μL of the medium from each cell culture and place in a 96-well plate microplate. Add 100 μL of Griess reagent to the medium at room temperature and cover with aluminum foil for 10 minutes. • (b) Measure the absorption by a Dynatech ELISA reader at 550 nm. NaNO2 was used as the standard to calculate the nitrite concentration. • (c) Calculate the % inhibiiton by the following equation: […]
Wherein RM is the reading of medium only, RM+L is the reading of medium with LPS, RM+L+C is the reading of medium with LPS and test compound.
For orientation: Griess reagent forms a coloured azo dye with nitrite.

The subject of data set [2] is inducible nitric oxide synthase (iNOS) in rat astrocytes. The following applies: cited from earlier work.

For orientation: IC50 means the concentration that gives 50% inhibition. For `C/C(O)=C(\C#N)C(=O)Nc1ccc(C(F)(F)F)cc1` [Compound A771726, reference compound], the IC50 in data set [1] was found to be 175 ± 4.7 µM. As a reminder, the melting point is the temperature of the solid-liquid transition. Compound `Cc1cc(C(=O)Nc2ccc(NC(=O)c3cc(C)on3)cc2)no1` [Compound 14c] showed a melting point of 178 to 180 °C. The 50% inhibitory concentration (IC50) in data set [1] is 0.6 ± 0.01 µM. On to `Cc1oncc1C(=O)Nc1ccc(C(F)(F)F)cc1` [lefunomide, leflunomide], for which, in data set [2], the “inhibition of activation of iNOS” value is listed as “inhibit activation of iNOS in rat astrocytes”. Compound `Cc1cc(C(=O)Oc2ccc(OC(=O)c3cc(C)on3)cc2)no1` [Compound 15c] gave a melting point of 148 to 150 °C. In addition, the IC50 in data set [1] is 7.6 ± 0.4 µM.
